≈ marks a conversion by molar mass, not a printed value.
What follows are compounds tested on M. tuberculosis (assay: microbe, parasite or virus in culture). Conditions: Mycobacterium tuberculosis, 120 h; read-out: QUM (MIC80).
Type: cell-based

CCc1nc2ccc(Cl)cn2c1C(=O)NCc1ccc(N2CCC(c3ccc(C(F)(F)F)cc3)CC2)cc1 [Compound 158] and CCc1nc2ccc(C(F)(F)F)cn2c1C(=O)NCc1ccc(N2CCC(c3ccc(Cl)cc3)CC2)cc1 [Compound 226] cannot be ordered by MIC80: less than 1 µM for the first, less than 1 µM for the second.

CCc1nc2ccc(Cl)cn2c1C(=O)NCc1ccc(N2CCC(O)(c3ccccc3)CC2)cc1 [Compound 239] and CCc1nc2ccc(Cl)cn2c1C(=O)NCc1ccc(N2CCC(C)(O)CC2)cc1 [Compound 237] cannot be ordered by MIC80: less than 1 µM for the first, less than 1 µM for the second.

CCc1nc2ccc(OC)cn2c1C(=O)NCc1ccc(N2CCN(c3ccc(Cl)cc3)CC2)cc1 [Compound 128] and CCc1nc2ccc(Cl)cn2c1C(=O)NCc1ccc(N2CCN(c3ccc(OC)cc3)CC2)cc1 [Compound 33] cannot be ordered by MIC80: less than 1 µM for the first, less than 1 µM for the second.

CCc1nc2cc(C)ccn2c1C(=O)NCc1ccc(N2CCC(c3ccc(C)cc3)CC2)cc1 [Compound 231] and CCc1nc2cc(Cl)ccn2c1C(=O)NCc1ccc(N2CCC(c3ccc(C)cc3)CC2)cc1 [Compound 221] cannot be ordered by MIC80: less than 1 µM for the first, less than 1 µM for the second.

Cc1nc2cc(Cl)ccn2c1C(=O)NCc1ccc(N2CCC(c3ccc(OC(F)(F)F)cc3)CC2)cc1 [Compound 300] and Cc1nc2ccc(F)cn2c1C(=O)NCc1ccc(N2CCC(c3ccc(OC(F)(F)F)cc3)CC2)cc1 [Compound 316] cannot be ordered by MIC80: less than 1 µM for the first, less than 1 µM for the second.

Cc1nc2ccc(F)cn2c1C(=O)NCc1ccc(N2CCC(c3ccc(F)cc3)CC2)cc1 [Compound 313] and Cc1ccc(C2CCN(c3ccc(CNC(=O)c4c(C)nc5ccc(F)cn45)cc3)CC2)cc1 [Compound 314] cannot be ordered by MIC80: less than 1 µM for the first, less than 1 µM for the second.

CCc1nc2c(Cl)cccn2c1C(=O)NCc1ccc(N2CCC(c3ccc(F)cc3)CC2)cc1 [Compound 183] and CCc1nc2c(C)cccn2c1C(=O)NCc1ccc(N2CCC(c3ccc(F)cc3)CC2)cc1 [Compound 225] cannot be ordered by MIC80: less than 1 µM for the first, less than 1 µM for the second.

CCc1nc2cc(Cl)ccn2c1C(=O)NCc1ccc(N2CCC(c3ccc(OC)cc3)CC2)cc1 [Compound 205] and CCc1nc2ccc(Cl)cn2c1C(=O)NCc1ccc(N2CCC(c3ccc(OC)cc3)CC2)cc1 [Compound 16] cannot be ordered by MIC80: less than 1 µM for the first, less than 1 µM for the second.

Compared with CCC1N=C2C=CC(Cl)=CN2C1C(=O)NCc1ccc2oc(C)nc2c1 (stereo not shown) [Compound 338], CCc1nc2ccc(Cl)cn2c1C(=O)NCc1ccc2oc(CN3CCOCC3)nc2c1 [Compound 331] is higher in MIC80: less than 1 µM for the first, 1 to 20 µM (≈ 0.454 to 9.08 µg/mL) for the second.

CCc1nc2ccc(C(F)(F)F)cn2c1C(=O)NCc1ccc(N2CCC(c3ccc(C)cc3)CC2)cc1 [Compound 169] and CCc1nc2ccc(C(F)(F)F)cn2c1C(=O)NCc1ccc(N2CCC(c3ccc(F)cc3)CC2)cc1 [Compound 227] cannot be ordered by MIC80: less than 1 µM for the first, less than 1 µM for the second.

CCc1nc2ccc(C(F)(F)F)cn2c1C(=O)NCc1ccc(N2CCC(c3ccc(OC)cc3)CC2)cc1 [Compound 120] and CCc1nc2ccc(OC)cn2c1C(=O)NCc1ccc(N2CCC(c3ccc(C)cc3)CC2)cc1 [Compound 127] cannot be ordered by MIC80: less than 1 µM for the first, less than 1 µM for the second.

CCc1nc2ccc(Cl)cn2c1C(=O)NCc1ccc(N2CCN(c3ccc(C(F)(F)F)cc3)CC2)cc1 [Compound 48] and CCc1nc2ccc(C(F)(F)F)cn2c1C(=O)NCc1ccc(N2CCN(c3ccc(C)cc3)CC2)cc1 [Compound 102] cannot be ordered by MIC80: less than 1 µM for the first, less than 1 µM for the second.

CCc1nc2c(Cl)cccn2c1C(=O)NCc1ccc(N2CCC(c3ccc(Cl)cc3)CC2)cc1 [Compound 53] and CCc1nc2c(C)cccn2c1C(=O)NCc1ccc(N2CCC(c3ccc(Cl)cc3)CC2)cc1 [Compound 173] cannot be ordered by MIC80: less than 1 µM for the first, less than 1 µM for the second.

CCc1nc2cc(Cl)ccn2c1C(=O)NCc1cccc(C(=O)N(C)Cc2ccc(F)cc2)c1 [Compound 330] and CCc1nc2cc(Cl)ccn2c1C(=O)NCc1ccc(C(=O)N(C)Cc2ccc(F)cc2)cc1 [Compound 318] fall in the same range of MIC80: 1 to 20 µM (≈ 0.479 to 9.58 µg/mL) for the first, 1 to 20 µM (≈ 0.479 to 9.58 µg/mL) for the second.

First: CCc1nc2cc(F)ccn2c1C(=O)NCc1ccc(N2CCC(c3ccc(C)cc3)CC2)cc1 [Compound 5]
Second: CCc1nc2c(Br)cccn2c1C(=O)NCc1ccc(N2CCC(c3ccc(C)cc3)CC2)cc1 [Compound 34]
The MIC80 of the first is lower: less than 1 µM for the first, 1 to 20 µM (≈ 0.531 to 10.6 µg/mL) for the second.

CCc1nc2ccc(C)cn2c1C(=O)NCc1ccc(N2CCN(c3ccc(C)cc3)CC2)cc1 [Compound 65] and CCc1nc2ccc(C)cn2c1C(=O)NCc1ccc(N2CCN(c3ccc(OC)cc3)CC2)cc1 [Compound 56] cannot be ordered by MIC80: less than 1 µM for the first, less than 1 µM for the second.

CCc1nc2cc(OC)ccn2c1C(=O)NCc1ccc(N2CCN(c3ccc(C(F)(F)F)cc3)CC2)cc1 [Compound 57] and CCc1nc2cc(C(F)(F)F)ccn2c1C(=O)NCc1ccc(N2CCN(c3ccc(F)cc3)CC2)cc1 [Compound 86] cannot be ordered by MIC80: less than 1 µM for the first, less than 1 µM for the second.

CCc1nc2ccccn2c1C(=O)NCc1ccc(CC2CCOCC2)cc1 [Compound 252] and CCc1nc2ccccn2c1C(=O)NCc1ccc(N2CCC(c3ccccc3)CC2)cc1 [Compound 170] cannot be ordered by MIC80: less than 1 µM for the first, less than 1 µM for the second.

CCc1nc2ccccn2c1C(=O)NCc1ccc(N2CCC(c3ccc(OC)cc3)CC2)cc1 [Compound 180] and CCc1nc2c(F)cccn2c1C(=O)NCc1ccc(N2CCC(c3ccc(OC)cc3)CC2)cc1 [Compound 15] cannot be ordered by MIC80: less than 1 µM for the first, less than 1 µM for the second.

CCc1nc2ccc(Cl)cn2c1C(=O)NCc1ccc(N2CCC(OCc3ccccc3)CC2)cc1 [Compound 233] and CCc1nc2ccc(Br)cn2c1C(=O)NCc1ccc(N2CCC(c3ccccc3)CC2)cc1 [Compound 1] cannot be ordered by MIC80: less than 1 µM for the first, less than 1 µM for the second.

CCc1nc2ccc(Cl)cn2c1C(=O)NCc1ccc(N2CCC(C(=O)Cc3ccc(F)cc3)CC2)cc1 [Compound 242] and CCc1nc2ccc(Cl)cn2c1C(=O)NCc1ccc(N2CCN(C(=O)Cc3ccc(F)cc3)CC2)cc1 [Compound 236] cannot be ordered by MIC80: less than 1 µM for the first, less than 1 µM for the second.

CCc1nc2cc(Br)ccn2c1C(=O)NCc1ccc(N2CCC(c3ccccc3)CC2)cc1 [Compound 113] and CCc1nc2cc(OC)ccn2c1C(=O)NCc1ccc(N2CCC(c3ccccc3)CC2)cc1 [Compound 18] cannot be ordered by MIC80: less than 1 µM for the first, less than 1 µM for the second.

CCc1nc2c(F)cccn2c1C(=O)NCc1ccc(N2CCN(c3ccccc3)CC2)cc1 [Compound 70] and CCc1nc2cc(C)ccn2c1C(=O)NCc1ccc(N2CCN(c3ccccc3)CC2)cc1 [Compound 67] cannot be ordered by MIC80: less than 1 µM for the first, less than 1 µM for the second.

CCc1nc2ccc(Cl)cn2c1C(=O)NCc1ccc(/C=C/c2ccc(F)cc2)cc1 [Compound 246] and CCc1nc2ccc(F)cn2c1C(=O)NCc1ccc(N2CCN(c3ccc(Cl)cc3)CC2)cc1 [Compound 77] cannot be ordered by MIC80: less than 1 µM for the first, less than 1 µM for the second.

CCc1nc2cc(Cl)ccn2c1C(=O)NCc1ccc(NC23CC4CC(CC(C4)C2)C3)cc1 [Compound 322] and CCc1nc2cc(Cl)ccn2c1C(=O)NCc1ccc(N2CCN(c3ccc(C)cc3)CC2)cc1 [Compound 35] cannot be ordered by MIC80: less than 1 µM for the first, less than 1 µM for the second.

CCc1nc2cc(Br)ccn2c1C(=O)NCc1ccc(N2CCN(c3ccc(OC)cc3)CC2)cc1 [Compound 208] and CCc1nc2cc(C)ccn2c1C(=O)NCc1ccc(N2CCN(c3ccc(C)cc3)CC2)cc1 [Compound 141] cannot be ordered by MIC80: less than 1 µM for the first, less than 1 µM for the second.

CCc1nc2c(C)cccn2c1C(=O)NCc1ccc(N2CCN(c3ccc(F)cc3)CC2)cc1 [Compound 83] and CCc1nc2c(Cl)cccn2c1C(=O)NCc1ccc(N2CCN(c3ccc(F)cc3)CC2)cc1 [Compound 85] cannot be ordered by MIC80: less than 1 µM for the first, less than 1 µM for the second.

CCc1nc2cc(F)ccn2c1C(=O)NCc1ccc(N2CCN(c3ccc(C)cc3)CC2)cc1 [Compound 93] and CCc1nc2c(Br)cccn2c1C(=O)NCc1ccc(N2CCN(c3ccc(C)cc3)CC2)cc1 [Compound 97] cannot be ordered by MIC80: less than 1 µM for the first, less than 1 µM for the second.

CCc1nc2c(OC)cccn2c1C(=O)NCc1ccc(N2CCC(c3ccc(F)cc3)CC2)cc1 [Compound 151] and CCc1nc2c(OC)cccn2c1C(=O)NCc1ccc(N2CCC(c3ccc(OC)cc3)CC2)cc1 [Compound 152] fall in the same range of MIC80: 1 to 20 µM (≈ 0.487 to 9.73 µg/mL) for the first, 1 to 20 µM (≈ 0.499 to 9.97 µg/mL) for the second.

CCc1nc2ccc(OC)cn2c1C(=O)NCc1ccc(N2CCN(c3ccc(C)cc3)CC2)cc1 [Compound 100] and CCc1nc2ccc(F)cn2c1C(=O)NCc1ccc(N2CCN(c3ccc(OC(F)(F)F)cc3)CC2)cc1 [Compound 42] cannot be ordered by MIC80: less than 1 µM for the first, less than 1 µM for the second.

CCc1nc2cc(Br)ccn2c1C(=O)NCc1ccc(N2CCC(c3ccc(OC(F)(F)F)cc3)CC2)cc1 [Compound 191] and CCc1nc2cc(C(F)(F)F)ccn2c1C(=O)NCc1ccc(N2CCC(c3ccc(C(F)(F)F)cc3)CC2)cc1 [Compound 26] cannot be ordered by MIC80: less than 1 µM for the first, less than 1 µM for the second.

CCc1nc2c(C)cccn2c1C(=O)NCc1ccc(N2CCC(c3ccc(C)cc3)CC2)cc1 [Compound 144] and CCc1nc2c(Cl)cccn2c1C(=O)NCc1ccc(N2CCC(c3ccc(C)cc3)CC2)cc1 [Compound 147] cannot be ordered by MIC80: less than 1 µM for the first, less than 1 µM for the second.

Compared with CCc1nc2cc(Cl)ccn2c1C(=O)NCc1cccc(C(=O)NCc2ccc(F)cc2)c1 [Compound 329], CCc1nc2ccc(F)cn2c1C(=O)NCc1ccc(N2CCC(c3ccc(Cl)cc3)CC2)cc1 [Compound 162] is lower in MIC80: 1 to 20 µM (≈ 0.465 to 9.3 µg/mL) for the first, less than 1 µM for the second.

Going from CCc1nc2ccc(Cl)cn2c1C(=O)NCc1nc2ccc(Cl)cc2[nH]1 [Compound 260] to CCc1nc2ccc(Cl)cn2c1C(=O)NCc1csc(-c2ccc(OC(F)(F)F)cc2)n1 [Compound 280], the MIC80 falls from greater than 20 µM to less than 1 µM.

First: CCc1nc2c(Br)cccn2c1C(=O)NCc1ccc(N2CCC(c3ccc(C(F)(F)F)cc3)CC2)cc1 [Compound 143]
Second: CCc1nc2c(Cl)cccn2c1C(=O)NCc1ccc(N2CCC(c3ccc(C(F)(F)F)cc3)CC2)cc1 [Compound 119]
The MIC80 of the first is higher: 1 to 20 µM (≈ 0.585 to 11.7 µg/mL) for the first, less than 1 µM for the second.

CCc1nc2ccc(C)cn2c1C(=O)NCc1ccc(N2CCC(c3ccc(Cl)cc3)CC2)cc1 [Compound 122] and CCc1nc2c(F)cccn2c1C(=O)NCc1ccc(N2CCC(c3ccc(Cl)cc3)CC2)cc1 [Compound 176] cannot be ordered by MIC80: less than 1 µM for the first, less than 1 µM for the second.

First: CCc1nc2cc(C(F)(F)F)ccn2c1C(=O)NCc1ccc(N2CCN(c3ccc(Cl)cc3)CC2)cc1 [Compound 211]
Second: CCc1nc2c(C(F)(F)F)cccn2c1C(=O)NCc1ccc(N2CCC(c3ccccc3)CC2)cc1 [Compound 112]
The MIC80 of the first is lower: less than 1 µM for the first, 1 to 20 µM (≈ 0.507 to 10.1 µg/mL) for the second.

Cc1nc2ccc(F)cn2c1C(=O)NCc1ccc(N2CCC(c3ccc(C(F)(F)F)cc3)CC2)cc1 [Compound 315] and CCc1nc2c(F)cccn2c1C(=O)NCc1ccc(N2CCC(c3ccc(F)cc3)CC2)cc1 [Compound 148] cannot be ordered by MIC80: less than 1 µM for the first, less than 1 µM for the second.

Reference: patent US20160185774A1, “Anti-Infective Compounds” (priority 2013, published 2016)
